Experimental data reported in US20240270809A1, “ORAL GLP RECEPTOR AGONISTS” (priority 2020, published 2024).
Positions of bridges follow the written chain, without caps; N, C: chain ends. Non-standard residues stand in square brackets, D forms with d. Residues, ends and D or L forms follow the SMILES beside them. *: point of attachment. Malonyl(2,2-Me2,histaminyl) = CC(C)(C(=O)NCCc1cnc[nH]1)C(=O)*; Ala(1H-tetrazol-5-yl) = N[C@@H](Cc1nnn[nH]1)C(=O)O; αMePhe(2-F) = C[C@](N)(Cc1ccccc1F)C(=O)O; αMeL = CC(C)C[C@](C)(N)C(=O)O; Nle = CCCC[C@H](N)C(=O)O; Aib = CC(C)(N)C(=O)O

Tests used:
human GLP2 receptor = molecular target: T1, human GLP2 receptor (Homo sapiens, UniProt O95838); test: cAMP accumulation assay, functional agonism of human GLP2 receptor; assay type: cell-based; settings: HEK cells infected with human GLP2 receptor BacMam virus, HTRF cAMP; for Emax: HEK293, read-out: Human GLP-2R agonist cAMP Emax; for EC50: read-out: Human GLP-2R agonist cAMP pEC50 (converted)
T1 construct: expressed in transfected cells; host or cells: HEK cells, BacMam virus transduction
T1 sequence (O95838 1-553): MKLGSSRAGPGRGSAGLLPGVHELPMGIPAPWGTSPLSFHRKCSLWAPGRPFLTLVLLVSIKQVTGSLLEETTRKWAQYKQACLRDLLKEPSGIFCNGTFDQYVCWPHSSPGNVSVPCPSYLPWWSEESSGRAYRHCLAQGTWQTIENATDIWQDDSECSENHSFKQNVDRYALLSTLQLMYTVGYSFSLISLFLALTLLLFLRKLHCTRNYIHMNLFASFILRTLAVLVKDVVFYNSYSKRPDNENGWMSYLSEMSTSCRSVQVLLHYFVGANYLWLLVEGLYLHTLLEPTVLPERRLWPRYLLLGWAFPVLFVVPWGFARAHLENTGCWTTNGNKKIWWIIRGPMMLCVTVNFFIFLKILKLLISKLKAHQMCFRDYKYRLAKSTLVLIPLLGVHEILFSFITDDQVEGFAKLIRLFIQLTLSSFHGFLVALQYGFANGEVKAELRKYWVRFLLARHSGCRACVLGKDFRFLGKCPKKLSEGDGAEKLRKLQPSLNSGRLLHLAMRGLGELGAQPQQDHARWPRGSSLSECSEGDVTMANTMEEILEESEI
Summary of the method: (§1)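 Frozen HEK cells, previously BacMam-infected 24 h to express either receptor, are stimulated for 45 min at 37° C in IBMX-containing (0.5 mM) HBSS. The reaction is then terminated with HTRF reagents in lysis buffer.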

human GLP1 receptor = molecular target: T2, human GLP1 receptor (Homo sapiens, UniProt P43220); test: cAMP accumulation assay, functional agonism of human GLP1 receptor; assay type: cell-based; settings: HEK cells infected with human GLP1 receptor BacMam virus, HTRF cAMP; for Emax: HEK293, read-out: Human GLP-1R agonist cAMP Emax; for EC50: read-out: Human GLP-1R agonist cAMP pEC50 (converted)
T2 construct: expressed in transfected cells; host or cells: HEK cells, BacMam virus transduction
T2 sequence (P43220 24-463): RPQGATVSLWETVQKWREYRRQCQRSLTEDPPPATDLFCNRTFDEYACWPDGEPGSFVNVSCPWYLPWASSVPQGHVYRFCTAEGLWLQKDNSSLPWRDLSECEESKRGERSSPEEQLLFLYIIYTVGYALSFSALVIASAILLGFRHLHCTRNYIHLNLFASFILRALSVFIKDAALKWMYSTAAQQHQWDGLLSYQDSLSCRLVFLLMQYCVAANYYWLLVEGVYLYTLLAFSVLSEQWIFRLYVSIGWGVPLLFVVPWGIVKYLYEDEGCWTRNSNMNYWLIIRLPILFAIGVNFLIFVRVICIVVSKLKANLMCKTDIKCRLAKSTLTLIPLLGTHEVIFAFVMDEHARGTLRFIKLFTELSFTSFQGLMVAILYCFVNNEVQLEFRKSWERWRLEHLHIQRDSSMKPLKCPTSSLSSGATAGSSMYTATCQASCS
Summary of the method: as §1

mouse GLP2 receptor = molecular target: T3, mouse GLP2 receptor (Mus musculus, UniProt Q5IXF8); test: cAMP accumulation assay, functional agonism of mouse GLP2 receptor; assay type: cell-based; settings: HEK cells transiently transfected with mouse GLP2 receptor, HTRF cAMP; for Emax: HEK293, read-out: Mouse GLP-2R agonist cAMP Emax; for EC50: read-out: Mouse GLP-2R agonist cAMP pEC50 (converted)
T3 construct: expressed in transfected cells; host or cells: HEK cells, transient transfection with GeneJuice
T3 sequence (Q5IXF8 1-512): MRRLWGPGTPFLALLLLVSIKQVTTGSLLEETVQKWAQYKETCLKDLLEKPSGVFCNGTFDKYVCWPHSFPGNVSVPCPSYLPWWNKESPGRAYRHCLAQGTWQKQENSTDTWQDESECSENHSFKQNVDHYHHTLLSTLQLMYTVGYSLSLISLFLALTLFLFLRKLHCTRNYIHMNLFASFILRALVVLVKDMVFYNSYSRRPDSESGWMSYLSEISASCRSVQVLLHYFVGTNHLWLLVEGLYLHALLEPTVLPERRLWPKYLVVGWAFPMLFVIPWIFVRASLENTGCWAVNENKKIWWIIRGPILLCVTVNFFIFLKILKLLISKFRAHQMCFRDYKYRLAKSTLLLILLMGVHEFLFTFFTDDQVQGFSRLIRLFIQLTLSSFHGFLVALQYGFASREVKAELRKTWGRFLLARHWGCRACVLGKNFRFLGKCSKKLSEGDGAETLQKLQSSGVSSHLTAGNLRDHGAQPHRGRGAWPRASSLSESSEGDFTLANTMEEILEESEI
Summary of the method: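 Transiently transfected HEK cells (24 h, frozen, 8000/well) in HBSS with 0.5 mM IBMX exposed to compound concentration series for 45 min at 37 °C. cAMP measured by HTRF after lysis and 1 h at RT; pEC50 from four-parameter concentration-response fit.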

[1] = Stability of peptides in Fasted-State Simulated Intestinal Fluid (FaSSIF); assay type: in vitro ADME; settings: FaSSIF with 10 mg/ml pancreatin; t=30 mins, 37° C., pH 6.5, 10 mg/ml pancreatin
[2] = Stability of peptides in Fasted-State Simulated Gastric Fluid (FaSSGF); assay type: in vitro ADME; settings: FaSSGF with 0.1 mg/ml pepsin; t=30 mins, 37° C., pH 1.6, 0.1 mg/ml pepsin
Experimental: Stability of peptides was tested in Fasted-State Simulated gastric Fluid (FaSSGF) prepared according to manufacturer's protocol (Biorelevant, art. no. FFF01). […] FaSSGF was pre-incubated for 15 min at 37° C. and spiked with test and reference item working solutions. Experiments were conducted in duplicate in a non-serial manner. The total incubation volume per replicate was 150 μl. […] All samples and calibration standards (prepared in FaSSGF) were precipitated by addition of 300 μl precipitant (ACN / 2% acetic acid / 0.2% HFBA, (precipitation regent, PR)) containing internal standards (ISTD) to 150 μl sample. After incubation for 1 h at room temperature all samples were centrifuged for 10 min at 2,200×g (room temperature).

[3] = Stability of peptides in rat intestinal fluid (ratIF); settings: Sprague Dawley, undiluted rat small intestinal fluid (ratIF)
Experimental: Peptides were tested for in vitro stability in native intestinal fluid obtained from the rat small intestine. Rat Sprague Dawley Small Intestinal Fluid (ratIF) (from Biotrend art. no. RSD-SIF-MI-30ML, undiluted) was preincubated for 15 min at 37° C. and spiked with test and reference item working solutions. Experiments were conducted in duplicate in a non-serial manner. The total incubation volume per replicate was 150 μl. […] All samples and calibration standards (prepared in ratIF) were precipitated by addition of 300 μl precipitant (ACN / 2% acetic acid / 0.2% HFBA, (precipitation regent, PR)) containing internal standards (ISTD) to 150 μl sample. After incubation for 1 h at room temperature all samples were centrifuged for 10 min at 2,200×g (room temperature).

Emax (human GLP2 receptor) [%]	EC50 (human GLP2 receptor) [nM]	Emax (human GLP1 receptor) [%]	EC50 (human GLP1 receptor) [nM]	Emax (mouse GLP2 receptor) [%]	EC50 (mouse GLP2 receptor) [nM]	remaining at 0.5 h [1] [%]	remaining at 0.5 h [2] [%]	remaining at 0.5 h [3] [%]	SMILES
105	0.00631	89.9	0.501	99.6	1.26	68.7	84.9	14.7	CCCC[C@@H]1NC(=O)[C@H](CCC(=O)O)NC(=O)[C@@H](NC(=O)[C@H](CO)NC(=O)[C@H](Cc2ccccc2)NC(=O)[C@H](CO)NC(=O)[C@@H](C)NC(=O)[C@H](Cc2nn[nH]n2)NC(=O)C(C)(C)C(=O)NCCc2c[nH]cn2)CCCCNC(=O)C[C@@H](C(=O)N[C@H](C(=O)N[C@@H](CC(C)C)C(=O)N[C@@H](CC(=O)O)C(=O)N[C@H]2CCC(=O)NCCCC[C@@H](C(=O)N[C@@H](CC(=O)O)C(=O)N[C@@H](Cc3ccccc3)C(=O)N[C@H](C(=O)N[C@H]3CCCCNC(=O)C[C@@H](C(=O)N[C@H]4CCC(=O)NCCCC[C@@H](C(N)=O)NC(=O)[C@H]([C@@H](C)O)NC(=O)[C@H]([C@@H](C)CC)NC(=O)[C@H](CCCCN)NC4=O)NC(=O)[C@H]([C@@H](C)CC)NC(=O)[C@H](CC(C)C)NC(=O)[C@H](Cc4c[nH]c5ccccc45)NC3=O)[C@@H](C)CC)NC(=O)[C@H](C)NC(=O)[C@H](C)NC(=O)[C@H](CCCCN)NC2=O)[C@@H](C)CC)NC(=O)[C@@H](Cc2ccccc2)NC1=O [Example 40] ({Malonyl(2,2-Me2,histaminyl)}-[Ala(1H-tetrazol-5-yl)][dA]SFSKE[Nle][dF]DILDEKAAKDFIKWLIDEKITK-NH2; lactam 6-10, 14-18, 22-26, 27-31 (inferred); C-terminus assumed)
101	0.00794	98.7	0.0158	103	0.0631	80.2	100	100	CCCC[C@H](NC(=O)[C@H](CCC(=O)O)NC(=O)[C@H](CC(=O)O)NC(=O)[C@H](CO)NC(=O)[C@](C)(Cc1ccccc1F)NC(=O)[C@H](CO)NC(=O)CNC(=O)[C@H](CC(=O)O)NC(=O)C(C)(C)NC(=O)[C@@H](N)Cc1c[nH]cn1)C(=O)N[C@H](Cc1ccccc1)C(=O)N[C@H]1CCC(=O)NCCCC[C@@H](C(=O)N[C@H]2CCC(=O)NCCCC[C@@H](C(=O)N[C@@H](CC(=O)O)C(=O)N[C@@H](Cc3ccccc3)C(=O)N[C@H](C(=O)N[C@H]3CCC(=O)NCCCC[C@@H](C(=O)N[C@H]4CCCCNC(=O)CC[C@@H](C(N)=O)NC(=O)[C@H]([C@@H](C)O)NC(=O)[C@H]([C@@H](C)CC)NC(=O)[C@H](CCCCN)NC4=O)NC(=O)[C@H]([C@@H](C)CC)NC(=O)[C@H](CC(C)C)NC(=O)[C@H](Cc4c[nH]c5ccccc45)NC3=O)[C@@H](C)CC)NC(=O)[C@H](C)NC(=O)[C@H](C)NC2=O)NC(=O)[C@H](CC(=O)O)NC(=O)[C@H](CC(C)C)NC(=O)[C@H]([C@@H](C)CC)NC1=O [Example 48]
103	0.02	95.2	0.2	103	0.501	61.9	100	63.6	CCCC[C@@H]1NC(=O)[C@H](CCC(=O)O)NC(=O)[C@@H](NC(=O)[C@H](CO)NC(=O)[C@](C)(Cc2ccccc2F)NC(=O)[C@H](CO)NC(=O)[C@@H](C)NC(=O)[C@H](CC(=O)O)NC(=O)C(C)(C)NC(=O)[C@@H](N)Cc2c[nH]cn2)CCCCNC(=O)C[C@@H](C(=O)N[C@H](C(=O)N[C@@H](CC(C)C)C(=O)N[C@@H](CC(=O)O)C(=O)N[C@H]2CCC(=O)NCCCC[C@@H](C(=O)N[C@@H](CC(=O)O)C(=O)N[C@@H](Cc3ccccc3)C(=O)N[C@H](C(=O)N[C@H]3CCCCNC(=O)C[C@@H](C(=O)N[C@H]4CCC(=O)NCCCC[C@@H](C(N)=O)NC(=O)[C@H]([C@@H](C)O)NC(=O)[C@H]([C@@H](C)CC)NC(=O)[C@H](CCCCN)NC4=O)NC(=O)[C@H]([C@@H](C)CC)NC(=O)[C@H](CC(C)C)NC(=O)[C@H](Cc4c[nH]c5ccccc45)NC3=O)[C@@H](C)CC)NC(=O)[C@H](C)NC(=O)[C@H](C)NC(=O)[C@H](CCCCN)NC2=O)[C@@H](C)CC)NC(=O)[C@@H](Cc2ccccc2)NC1=O [Example 59] (H-H[Aib]D[dA]S[αMePhe(2-F)]SKE[Nle][dF]DILDEKAAKDFIKWLIDEKITK-NH2; lactam 8-12, 16-20, 24-28, 29-33 (inferred); C-terminus assumed)
102	0.0158	96.5	0.158	102	0.794	62.5	100	89.6	CCCC[C@@H]1NC(=O)[C@H](CCC(=O)O)NC(=O)[C@@H](NC(=O)[C@H](CO)NC(=O)[C@](C)(Cc2ccccc2F)NC(=O)[C@H](CO)NC(=O)[C@@H](C)NC(=O)[C@H](CC(=O)O)NC(=O)C(C)(C)NC(=O)[C@@H](N)Cc2c[nH]cn2)CCCCNC(=O)C[C@@H](C(=O)N[C@@](C)(CC(C)C)C(=O)N[C@@H](CC(C)C)C(=O)N[C@@H](CC(=O)O)C(=O)N[C@H]2CCC(=O)NCCCC[C@@H](C(=O)N[C@@H](CC(=O)O)C(=O)N[C@@H](Cc3ccccc3)C(=O)N[C@H](C(=O)N[C@H]3CCCCNC(=O)C[C@@H](C(=O)N[C@H]4CCC(=O)NCCCC[C@@H](C(N)=O)NC(=O)[C@H]([C@@H](C)O)NC(=O)[C@H]([C@@H](C)CC)NC(=O)[C@H](CCCCN)NC4=O)NC(=O)[C@H]([C@@H](C)CC)NC(=O)[C@H](CC(C)C)NC(=O)[C@H](Cc4c[nH]c5ccccc45)NC3=O)[C@@H](C)CC)NC(=O)[C@H](C)NC(=O)[C@H](C)NC(=O)[C@H](CCCCN)NC2=O)NC(=O)[C@@H](Cc2ccccc2)NC1=O [Example 60] (H-H[Aib]D[dA]S[αMePhe(2-F)]SKE[Nle][dF]D[αMeL]LDEKAAKDFIKWLIDEKITK-NH2; lactam 8-12, 16-20, 24-28, 29-33 (inferred); C-terminus assumed)
